Test results reported in US12275733B2, “Substituted pyrido[3,4-b]indoles for the treatment of cartilage disorders” (Sanofi, priority 2016, dated 2025).

Tests used:
[1] = system: primary human chondrocyte pellet cultures; experiment: Chondrogenesis activity assay in primary human chondrocyte pellet cultures (proteoglycan (aggrecan) induction, Blyscan assay); format: cell-based; conditions: for EC50: 336 h, proteoglycan (aggrecan) induction, primary human chondrocyte pellets, 2 weeks culture; for Emax: Homo sapiens, Chondrocyte, maximum percent proteoglycan (aggrecan) induction relative to the internal reference compound at 10 μM
Protocol: B) Chondrogenesis Activity Assay in Primary Human Chondrocyte Pellet Cultures
In this assay human articular chondrocytes are harvested by enzymatic digestion from articular cartilage and passaged several times to dedifferentiate the chondrocytes and to propagate the cells. Cells are cultured as cell pellets in the presence of the compounds of the invention over 2 weeks, and the chondrogenic differentiation is quantified by the production of the chondrogenic marker aggrecan (proteoglycan).
In detail, primary chondrocytes were harvested by enzymatic digestion from cartilage of osteoarthritis patients undergoing knee joint replacement surgery, and cultured in vitro. Cells were passaged one or two times and aliquots were cryopreserved. To initiate chondrogenesis experiments, cell aliquots were thawn, cultured in Chondrocyte Growth Medium (CGM, Lonza, #CC-3216) and passaged twice to further propagate and dedifferentiate cells. Pellet cultures were initiated by seeding 2.5×10E5 cells per well into a 96-well deep well plate in 600 μl chondrocyte differentiation medium consisting of Dulbecco's Modified Eagle Medium (DMEM, Invitrogen, #41966), 1×ITS-solution (Insulin/Transferrin/sodium selenite; 100× solution: Invitrogen, #51500056), 5 μg/mL linoleic acid (Sigma, #L1012-1G), 1× nonessential amino acids (100× solution: Invitrogen, #11140); 10 nM Dexamethasone, 2 ng/ml TGF-β1 (transforming growth factor β1) and 10 μg/ml ascorbic acid. Cells were spun to pellets by centrifugation (10 min, 400×g). Test compounds dissolved in DMSO were added to yield increasing compound concentrations, typically from 40 nM to 10 μM, and a final DMSO concentration of 0.1%, and the cell pellets cultured at 37° C., and 5% CO2 for 2 weeks. On each 96-well plate, control wells containing no test compound but the same concentration of DMSO, i.e. untreated cells, were included and used as reference for the determination of the effect of the test compounds on the cells, and wells containing an internal reference compound at a concentration of 10 μM were included and used as positive control and for standardizing the results. Chondrocyte differentiation medium and the compounds were exchanged twice weekly until harvest of the pellets.
For harvest of the pellets, medium was removed and the pellet was homogenized by enzymatic digestion. 100 μl of protease solution containing 0.4 mg/ml papain, 50 mM sodium phosphate, 4 mM EDTA and 0.48 mg/ml L-cysteine was added to the pellet in each well of a 96-well plate, the plate was sealed with a plate sealer foil (SILVERseal, Greiner Bio-One) and incubated for 4 to 6 hours at 65° C. with agitation.
The concentration of proteoglycan (aggrecan) was determined by quantification of the sulfated glycosaminoglycan side chains of aggrecan using the Blyscan assay (Kit from Biocolor). Aliquots of the papain-digest were transferred to 400 μl of Blyscan dye solution and incubated at room temperature for 45 min with agitation (1200 rpm). The mixture was centrifuged at 3760×g for 45 min, the supernatant was discarded, and the stained pellet was redissolved in 400 μl of Blyscan dissociation reagent by rotation until the precipitate completely resolved. Optical density was measured at 656 nm using a Tecan Saphire2 instrument, and the amount of proteoglycan determined against a standard curve with chondroitin-4-sulfate.
Induction of proteoglycan (aggrecan) was calculated for each compound concentration relative to the control (untreated cells, i.e. no test compound added), and an EC50 value (effective concentration 50 (in μM (micromollliter)), i.e. the compound concentration at which the effect of the compound on proteoglycan (aggrecan) induction reaches 50% of the maximum induction) was calculated using a sigmoidal signal fit procedure. […]

[2] = system: ATDC5 cells; experiment: Chondrogenesis activity assay in ATDC5 cells (collagen type II induction, immunofluorescence); format: cell-based, mouse; conditions: Mus musculus; for EC50: collagen type II induction in ATDC5 cells, concentration reaching 50% of maximum induction; for Emax: maximum percent induction of collagen type II relative to internal reference compound at 10 μM, ATDC5 cells
Method in brief: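 Collagen type II was stained in fixed, permeabilized cells with an Alexa Fluor 488 secondary and measured by high-content fluorescence imaging. ATDC5 cells had 4 days at 37 °C in insulin-supplemented differentiation medium with compound, typically 40 nM–10 μM, 0.1% DMSO. DMSO wells and a 10 μM internal reference compound were used for normalization.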

SMILES	EC50 [1] [µM]	Emax [1] [%]	EC50 [2] [µM]	Emax [2] [%]
FC(F)(F)Cn1c2cnccc2c2cc(Cl)cc(-c3cnn(Cc4cccnc4)c3)c21 [Example 2, 6-Chloro-8-(1-(pyridin-3-ylmethyl)-1H-pyrazol-4-yl)-9-(2,2,2-trifluoroethyl)-9H-pyrido[3,4-b]indole]	4.4	> 200	0.71	> 80
CCn1c2c(-c3cnn(Cc4cccnc4)c3)cc(Br)cc2c2ccnc(C)c21 [Example 5, 6-Bromo-9-ethyl-1-methyl-8-(1-pyridin-3-ylmethyl-1H-pyrazol-4-yl)-9H-pyrido[3,4-b]indole]	1.3	> 200	0.49	> 80
Cc1nccc2c1[nH]c1c(-c3ccc(OCC4(C)COC4)cc3)cc(Cl)c(C)c12 [Example 8, 6-Chloro-1,5-dimethyl-8-[4-(3-methyl-oxetan-3-ylmethoxy)-phenyl]-9H-pyrido[3,4-b]indole]	0.26	100 to 200	0.12	> 80
OCCn1cc(-c2cc(Cl)cc3c4ccncc4n(CC(F)(F)F)c23)cn1 [Example 10, 2-(4-[6-Chloro-9-(2,2,2-trifluoroethyl)-9H-pyrido[3,4-b]indol-8-yl]pyrazol-1-yl)ethanol]	2.4	40 to 100	0.69	> 80
FC(F)(F)Cn1c2cnccc2c2cc(Cl)cc(-c3cnn(-c4ccccc4)c3)c21 [Example 11, 6-Chloro-8-(1-phenyl-1H-pyrazol-4-yl)-9-(2,2,2-trifluoroethyl)-9H-pyrido[3,4-b]indole]	7.9	40 to 100	3.9	50 to 80
Cc1nccc2c1[nH]c1c(-c3ccc(OCCn4cccn4)cc3)cc(Cl)cc12 [Example 13, 6-Chloro-1-methyl-8-[4-(2-(1H-pyrazol-1-yl)ethoxy)-phenyl]-9H-pyrido[3,4-b]indole]	1.1	> 200	0.12	> 80
CCn1c2c(-c3ccnn3C)cc(Cl)cc2c2ccnc(C)c21 [Example 19, 6-Chloro-9-ethyl-1-methyl-8-(2-methyl-2H-pyrazol-3-yl)-9H-pyrido[3,4-b]indole]	6.9	40 to 100	> 10	50 to 80
CCn1c2c(-c3cnn(C)c3)cc(Br)cc2c2cc(C)nc(C)c21 [Example 21, 6-Bromo-9-ethyl-1,3-dimethyl-8-(1-methyl-1H-pyrazol-4-yl)-9H-pyrido[3,4-b]indole]	4.3	> 200	> 3.3	20 to 50
COc1ccc(-c2cc(Cl)cc3c4ccnc(C)c4n(C)c23)cc1 [Example 22, 6-Chloro-8-(4-methoxy-phenyl)-1,9-dimethyl-9H-pyrido[3,4-b]indole]	4	> 200	0.63	> 80
COc1ccc(-c2cc(Cl)c(C)c3c2[nH]c2c(C)nccc23)cc1 [Example 27, 6-Chloro-8-(4-methoxy-phenyl)-1,5-dimethyl-9H-pyrido[3,4-b]indole]	3.5	> 200	0.097	> 80
Cc1nccc2c1[nH]c1c(-c3ccc(CNC4CCCC4)cc3)cc(Cl)cc12 [Example 29, [4-(6-Chloro-1-methyl-9H-pyrido[3,4-b]indol-8-yl)-benzyl]-cyclopentyl-amine]	1.5	100 to 200	> 1.1	< 20
COc1ccc(-c2cc(C#N)cc3c2[nH]c2c(C)nccc23)cc1 [Example 33, 8-(4-Methoxy-phenyl)-1-methyl-9H-pyrido[3,4-b]indole-6-carbonitrile]	0.83	100 to 200	0.12	> 80
Cc1nccc2c1[nH]c1c(-c3ccc(OCc4ccc5ccccc5n4)cc3)cc(Cl)cc12 [Example 34, 6-Chloro-1-methyl-8-[4-(quinolin-2-ylmethoxy)-phenyl]-9H-pyrido[3,4-b]indole]	3.8	> 200	> 1.1	20 to 50
